Test results: patent publication US7855232B2, “Organoselenium compound for cancer chemoprevention” (LKT Laboratories, Inc., priority 2001, dated 2010)
Marks after values point to notes of the source that are not given here.

Tests used:
Format in all cases: in vivo, Female A/J mice
[1] = system: Glutathione S-Transferase; experiment: Glutathione S-transferase (GST) activity in tissue cytosol of treated mice, CDNB substrate; conditions: for Ratio Test/con (GST): gavage; for GST act.: gavage in corn oil
Procedure: The activity of cytosolic was assayed according to the method of Habig et al. using 1-chloro-2,4-dinitrobenzene (CDNB) as the substrate. Habig et al, J. Biol. Chem. 249:7130-7139 (1974). The complete solution contains, in a total volume of 2.0 mL, 0.1 M phosphate buffer, pH 6.5, 5 mM glutathione, 1 mM CDNB, and 20 μL of the cytosol. The reaction was monitored at 340 nm in a Beckman Model DU65 UV-VIS spectrophotometer. Assays were performed at 30° C. Complete assay mixture without the cytosolic enzyme was used as the reference blank. Data as analyzed by the Student's “t” test and P values were obtained in comparison to the control.

[2] = system: UDP-Glucuronosyltransferase (UDP-GT); experiment: UDP-glucuronosyltransferase (UDP-GT) activity in liver microsomes of treated mice, o-aminophenol substrate; conditions: for Ratio Test/con (UDP-GT): gavage; for UDP-GT activity (column head prints GSH conc.): gavage in corn oil
Procedure: Microsomal samples were assayed for enzymatic conjugation by modifying the procedure of Zakim et al., Methods of Biochemical Analysis, ed. David Glick, 21:1-37, (1973). using o-aminophenol as the substrate. The complete assay solution contains, in a total volume of 500 μl, 0.25 M phosphate buffer (pH 7.6), 0.002 M o-aminophenol, 0.05 M UDPGA, 0.125 M magnesium chloride and 100 μl microsomes. The mixture was incubated for 30 minutes. Reactions were stopped by the addition of 500 μl of TCA-sodium phosphate reagent. The precipitated protein was removed, 100 μl of 0.05% sodium nitrite was added to 950 μl of the supernatent solution and allowed to stand for 5 minutes. 100 μl of 0.5% ammonium sulfamate was added, after 5 minutes. 100 μl of 0.12% N-(-1-naphthyl)ethylenediamine dihydrochloride was added and incubated for 2 hours in the dark; and the difference in the optical density between the blanks and the samples were recorded at 555 nm in a Beckman model DU65 UV-VIS spectrophotometer. The UDP-GT activity was calculated using the extinction coefficient 29 mM-1 cm-1 for the coupled product.

GSH = experiment: Glutathione (GSH) concentration in tissues of treated mice, HPLC; conditions: for Ratio Test/con (GSH): gavage; for GSH conc.: gavage in corn oil
Procedure: GSH was quantitated by modification of the procedure Siller-Cepeda et al. Plant Cell Physiol. 32:1179-1185 (1991). Aliquots of tissue homogenates were mixed with equal volumes of 20% PCA containing 2 mM BPDS. Vortex, centrifuge at 7800×g for 15 minutes at 4° C. and 250 μl supernatant transferred into a microfuge tube containing 25 μl of γ-glu-glu as internal standard. The samples were carboxymethylated with 25 μl of 100 mM iodoacetic acid dissolved in 0.2 mM m-cresol purple sodium salt solution. The pH of the solution was adjusted to 9-10 by adding 350 μl of KOH (2M)-KHCO3 (2.4 M) mixture and incubated in the dark for 15 minutes. After carboxymethylation, the samples were derivatized with 500 μl of 1% dinitrofluorobenzene (DNFB) and kept in the dark at 4° C. overnight. The samples were centrifuged at 13,000×g for 15 minutes, filtered through 0.2 μm filter, and were analyzed with a SHIMADZU two-pump gradient HPLC system. Samples were injected by a SHIMADZU SIL-10AV Autoinjector onto a Varian 3-aminopropyl MICROSORB-MV column (4.6×250 mm) operated at ambient temperature with a flow rate of 1 ml/min. Absorbance of the dinitrophenyl derivatives was monitored at 365 nm. The amount of GSH was calculated from a standard curve using γ-glu-glu as internal standard.

[3] = colon, dose 0.02 mmol/Kg body weight
[4] = colon, dose 0.04 mmol/Kg body weight
[5] = forestomach, dose 0.02 mmol/Kg body weight
[6] = forestomach, dose 0.04 mmol/Kg body weight
[7] = liver, dose 0.02 mmol/Kg body weight
[8] = liver, dose 0.04 mmol/Kg body weight
[9] = lung, dose 0.02 mmol/Kg body weight
[10] = lung, dose 0.04 mmol/Kg body weight
[11] = small intestinal mucosa, dose 0.02 mmol/Kg body weight
[12] = small intestinal mucosa, dose 0.04 mmol/Kg body weight

SMILES | Ratio Test/con (GST) [1, 3] | GST act. [1, 3] | Ratio Test/con (GST) [1, 4] | GST act. [1, 4] | Ratio Test/con (GST) [1, 5] | GST act. [1, 5] [μmol/min mg protein] | Ratio Test/con (GST) [1, 6] | GST act. [1, 6] [μmol/min mg protein] | Ratio Test/con (GST) [1, 7] | GST act. [1, 7] | Ratio Test/con (GST) [1, 8] | GST act. [1, 8] | Ratio Test/con (GST) [1, 9] | GST act. [1, 9] | Ratio Test/con (GST) [1, 11] | GST act. [1, 11] | Ratio Test/con (UDP-GT) ([2]; dose 0.04 mmol/Kg body weight) | UDP-GT activity (column head prints GSH conc.) ([2]; dose 0.04 mmol/Kg body weight) | Ratio Test/con (GSH) (GSH; [8]) | GSH conc. (GSH; [8]) | also measured
N#C[Se]Cc1ccc[se]1 [(3) SMSC, 2-selenophenyl methylene selenocynate] | 1.08 | 0.70 ± 0.05 μmol/min mg protein | 1.06 | 0.69 ± 0.09 μmol/min mg protein | 0.8 | 0.89 ± 0.22 | 1.01 | 1.12 ± 0.19 | 0.81 | 1.04 ± 0.18 ^g μmol/min mg protein | 1.58 | 2.02 ± 0.33 ^e μmol/min mg protein | 1.18 | 0.40 ± 0.03 ^f μmol/min mg protein | 0.86 | 0.19 ± 0.5 μmol/min mg protein | 2.36 | 9.56 ± 4.23 ^d nmol/min/mg protein | 1.38 | 4.89 ± 0.57^c μmol/gm tissue weight | Ratio Test/con (GST) [1, 10]: 1.00; GST act. [1, 10]: 0.34 ± 0.06 μmol/min mg protein; Ratio Test/con (GST) [1, 12]: 0.91; GST act. [1, 12]: 0.20 ± 0.02 μmol/min mg protein; Ratio Test/con (UDP-GT) ([2]; dose 0.02 mmol/Kg body weight): 1.52; UDP-GT activity (column head prints GSH conc.) ([2]; dose 0.02 mmol/Kg body weight): 6.15 ± 1.20 ^d nmol/min/mg protein; Ratio Test/con (GSH) (GSH; [7]): 0.98; GSH conc. (GSH; [7]): 3.49 ± 0.90 μmol/gm tissue weight; Ratio Test/con (GSH) (GSH; [11]): 0.89; GSH conc. (GSH; [11]): 1.88 ± 0.4 μmol/gm tissue weight; Ratio Test/con (GSH) (GSH; [12]): 1.00
N#C[Se]Cc1ccc(C[Se]C#N)[se]1 [(4) SDMSC, selenophenyl-2,5-di-methylene selenocyanate] | 1.13 | 0.45 ± 0.02 ^g μmol/min mg protein | 1.10 | 0.44 ± 0.04 μmol/min mg protein | 1.35 | 1.05 ± 0.28 | 1.21 | 0.94 ± 0.18 | 1.06 | 1.20 ± 0.11 ^g μmol/min mg protein | 1.50 | 1.69 ± 0.18 ^e μmol/min mg protein | 1.23 | 0.58 ± 0.08 μmol/min mg protein | 1.00 | 0.34 ± 0.01 μmol/min mg protein | 2.43 | 10.75 ± 2.04 ^d nmol/min/mg protein | 1.39 | 5.34 ± 1.36 μmol/gm tissue weight | Ratio Test/con (GST) [1, 10]: 1.17; GST act. [1, 10]: 0.55 ± 0.07 μmol/min mg protein; Ratio Test/con (GST) [1, 12]: 1.06; GST act. [1, 12]: 0.36 ± 0.02 μmol/min mg protein; Ratio Test/con (UDP-GT) ([2]; dose 0.02 mmol/Kg body weight): 2.30; UDP-GT activity (column head prints GSH conc.) ([2]; dose 0.02 mmol/Kg body weight): 10.17 ± 2.37 ^c nmol/min/mg protein; Ratio Test/con (UDP-GT) ([2]; dose 0.02 mmol/Kg body weight, listed as SDMSC 4): 2.67; Ratio Test/con (GSH) (GSH; [7]): 0.93; GSH conc. (GSH; [7]): 3.58 ± 1.86 μmol/gm tissue weight
[Se]=C=NCc1ccc(CN=C=[Se])[se]1 [(7) SDMISC, selenophenyl-2,5-di-methylene isoselenocyanate] | 1.23 | 0.80 ± 0.03 ^c μmol/min mg protein | 1.34 | 0.87 ± 0.03 ^e μmol/min mg protein | 1.10 | 1.22 ± 0.21 | 1.14 | 1.27 ± 0.28 | 2.39 | 3.06 ± 0.41 ^e μmol/min mg protein | 2.34 | 3.00 ± 0.13 ^c μmol/min mg protein | 1.31 | 0.45 ± 0.04 ^f μmol/min mg protein | 2.26 | 0.50 ± 0.14 ^e μmol/min mg protein | 1.60 | 6.46 ± 1.95 nmol/min/mg protein | 1.20 | 4.25 ± 1.02 μmol/gm tissue weight | dose response of GST induction (in words) ([1]; colon): dose response induction; Ratio Test/con (GST) [1, 10]: 1.16; GST act. [1, 10]: 0.40 ± 0.04 μmol/min mg protein; Ratio Test/con (GST) [1, 12]: 2.82; GST act. [1, 12]: 0.62 ± 0.04 ^c μmol/min mg protein; Ratio Test/con (GST) ([1]; small intestinal mucosa, dose 0.04 mmol/Kg body weight, listed as SDMISC 7): 2.83; Ratio Test/con (UDP-GT) ([2]; dose 0.02 mmol/Kg body weight): 2.56; UDP-GT activity (column head prints GSH conc.) ([2]; dose 0.02 mmol/Kg body weight): 10.37 ± 1.99 ^d nmol/min/mg protein; Ratio Test/con (GSH) (GSH; [7]): 1.30; GSH conc. (GSH; [7]): 4.63 ± 1.30 μmol/gm tissue weight; Ratio Test/con (GSH) (GSH; [11]): 1.36; GSH conc. (GSH; [11]): 2.86 ± 0.14^c μmol/gm tissue weight; Ratio Test/con (GSH) (GSH; [12]): 1.90; GSH conc. (GSH; [12]): 4.00 ± 0.35^d μmol/gm tissue weight
N#C[Se]Cc1ccc(C[Se]C#N)cc1 [p-XSC, 1,4-phenylenebis(methylene)selenocyanate, reference compound] | 1.10 | 0.72 ± 0.07 μmol/min mg protein |  |  | 0.88 | 0.98 ± 0.27 |  |  | 1.28 | 1.64 ± 0.45 μmol/min mg protein |  |  | 1.41 | 0.48 ± 0.13 μmol/min mg protein | 0.95 | 0.21 ± 0.06 μmol/min mg protein | 1.88 | 7.60 ± 2.47 ^d nmol/min/mg protein | 0.99 | 3.50 ± 0.75 μmol/gm tissue weight | induction of GST activity (in words) ([1]; tissues of A/J mice): failed to induce a significant increase; Ratio Test/con (GSH) (GSH; [12]): 0.91; GSH conc. (GSH; [12]): 1.93 ± 0.54 μmol/gm tissue weight; increase of GSH concentration (in words) (GSH; tissues of A/J mice): failed to induce a significant increase
